Data set [1] in a line: Hammett constant was determined. The class given is functional.
The target in data set [2] is Integrin alpha-V/beta-3 (Homo sapiens, UniProt P05106+P06756). Put plainly: Displacement of [125I]L-775,219 from human recombinant alphaV-beta3 integrin. The data set is classed as protein-complex assay.
The nature of data set [3]: Bioavailability in dog. The class given is ADME, organism-based, Canis lupus familiaris. The note with it: in vivo.
Data set [4] in a line: Clearance of compound was determined in dogs. The class given is ADME, organism-based, Canis lupus familiaris. The note with it: dog, in vivo.
The nature of data set [5]: Half-life of compound was determined in dogs. The class given is ADME, organism-based, Canis lupus familiaris. To be noted: dog, in vivo.

Integrin alpha-V/beta-3, sequence (P05106 27-788 limits assumed): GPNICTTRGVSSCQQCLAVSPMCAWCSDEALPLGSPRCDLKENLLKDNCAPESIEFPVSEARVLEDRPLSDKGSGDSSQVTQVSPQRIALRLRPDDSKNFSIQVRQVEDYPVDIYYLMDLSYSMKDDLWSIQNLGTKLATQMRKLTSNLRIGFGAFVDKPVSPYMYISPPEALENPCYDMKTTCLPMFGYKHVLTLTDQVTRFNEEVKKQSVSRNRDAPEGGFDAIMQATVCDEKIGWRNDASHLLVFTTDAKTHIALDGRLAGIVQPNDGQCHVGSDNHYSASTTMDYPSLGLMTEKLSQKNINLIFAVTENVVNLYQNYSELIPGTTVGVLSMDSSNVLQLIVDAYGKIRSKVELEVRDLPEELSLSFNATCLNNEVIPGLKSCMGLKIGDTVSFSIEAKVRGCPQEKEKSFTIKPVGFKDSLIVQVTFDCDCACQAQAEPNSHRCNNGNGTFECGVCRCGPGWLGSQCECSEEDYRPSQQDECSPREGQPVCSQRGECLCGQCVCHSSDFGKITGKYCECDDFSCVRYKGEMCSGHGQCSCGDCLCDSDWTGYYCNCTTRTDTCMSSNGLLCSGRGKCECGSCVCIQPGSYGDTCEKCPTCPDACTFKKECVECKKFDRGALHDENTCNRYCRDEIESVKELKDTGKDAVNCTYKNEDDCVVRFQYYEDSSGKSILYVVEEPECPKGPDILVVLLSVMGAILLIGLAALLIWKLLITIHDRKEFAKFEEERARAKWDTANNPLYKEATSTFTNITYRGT
Integrin alpha-V/beta-3, sequence (P06756 31-889 limits assumed): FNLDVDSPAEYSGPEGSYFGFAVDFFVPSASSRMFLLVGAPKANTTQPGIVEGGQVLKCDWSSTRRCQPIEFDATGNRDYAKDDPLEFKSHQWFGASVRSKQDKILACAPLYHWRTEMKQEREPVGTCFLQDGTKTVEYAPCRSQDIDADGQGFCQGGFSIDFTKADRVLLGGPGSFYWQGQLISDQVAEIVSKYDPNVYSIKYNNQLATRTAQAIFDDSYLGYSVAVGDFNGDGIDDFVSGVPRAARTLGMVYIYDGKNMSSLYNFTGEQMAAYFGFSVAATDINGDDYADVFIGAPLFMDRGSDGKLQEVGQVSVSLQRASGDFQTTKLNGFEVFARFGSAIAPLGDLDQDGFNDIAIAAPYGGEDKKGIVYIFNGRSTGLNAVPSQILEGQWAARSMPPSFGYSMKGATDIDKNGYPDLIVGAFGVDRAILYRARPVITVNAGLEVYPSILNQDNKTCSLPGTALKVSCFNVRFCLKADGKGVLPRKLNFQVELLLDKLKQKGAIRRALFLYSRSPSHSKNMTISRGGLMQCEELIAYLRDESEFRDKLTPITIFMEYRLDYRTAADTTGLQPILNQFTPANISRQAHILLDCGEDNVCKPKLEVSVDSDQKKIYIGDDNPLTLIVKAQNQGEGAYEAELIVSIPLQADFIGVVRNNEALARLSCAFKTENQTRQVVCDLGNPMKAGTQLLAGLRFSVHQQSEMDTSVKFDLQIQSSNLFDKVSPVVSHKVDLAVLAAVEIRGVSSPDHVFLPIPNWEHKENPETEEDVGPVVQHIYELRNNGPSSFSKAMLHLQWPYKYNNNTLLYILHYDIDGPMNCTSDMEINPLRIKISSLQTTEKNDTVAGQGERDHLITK
Integrin alpha-V/beta-3, sequence (P06756 891-1048 limits assumed): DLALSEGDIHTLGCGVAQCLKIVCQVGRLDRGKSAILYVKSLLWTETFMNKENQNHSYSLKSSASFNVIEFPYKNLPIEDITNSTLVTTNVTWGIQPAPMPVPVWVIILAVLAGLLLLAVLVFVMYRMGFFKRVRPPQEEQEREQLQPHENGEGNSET

`COc1ccc([C@H](CC(=O)O)N(C)C(=O)CCCCc2nc3c(cc2NS(C)(=O)=O)CCCN3)cn1` returned a Sigmap in data set [1] of 0.03. Besides, the concentration for half-maximal inhibition (IC50) in data set [2] worked out at 0.9 nM.

For `COc1ccc([C@H](CC(=O)O)N(C)C(=O)CCCCc2nc3c(cc2C#N)CCCN3)cn1`, the Sigmap in data set [1] amounted to 0.71. Also, the IC50 in data set [2] amounted to 16.5 nM.

Consider `COc1ccc([C@H](CC(=O)O)N(C)C(=O)CCCCc2nc3c(cc2N)CCCN3)cn1`, for which the Sigmap in data set [1] is -0.3. Moreover, the IC50 in data set [2] turned out to be 0.4 nM.

Turning to `COc1ccc([C@H](CC(=O)O)N(C)C(=O)CCCCc2nc3c(cc2[N+](=O)[O-])CCCN3)cn1`, in data set [1], the Sigmap was found to be 0.81. The 50% inhibitory concentration (IC50) in data set [2] amounted to 36.7 nM.

For `COc1ccc([C@H](CC(=O)O)N(C)C(=O)CCCCc2nc3c(cc2Br)CCCN3)cn1`, in data set [1], the Sigmap worked out at 0.26. The IC50 in data set [2] worked out at 2.3 nM.

On to `C=Cc1cc2c(nc1CCCCC(=O)N(C)[C@@H](CC(=O)O)c1ccc(OC)nc1)NCCC2`, for which the Sigmap in data set [1] was -0.14. For the same compound, in data set [2], the IC50 was 0.3 nM.

`COc1ccc([C@H](CC(=O)O)N(C)C(=O)CCCCc2nc3c(cc2NC(C)=O)CCCN3)cn1` displayed a Sigmap in data set [1] of 0. Further, in data set [2], the half-inhibitory concentration (IC50) stood at 0.6 nM.

Regarding `COc1ccc([C@H](CC(=O)O)N(C)C(=O)CCCCc2nc3c(cc2C)CCCN3)cn1`, the Sigmap in data set [1] was -0.14. The compound also yielded a bioavailability in data set [3] of 65%. Further, the 50% inhibitory concentration (IC50) in data set [2] was 0.3 nM. This compound registered a clearance in data set [4] of 2.4 mL/min/kg. Also, in data set [5], the half-life is 4.9 h.

As to `COc1ccc([C@H](CC(=O)O)N(C)C(=O)CCCCc2ccc3c(n2)NCCC3)cn1`, the Sigmap in data set [1] came to 0. The bioavailability in data set [3] is 76%. Moreover, in data set [2], the IC50 turned out to be 0.7 nM. Besides, the half-life in data set [5] is 5.8 h.

As for `COc1ccc([C@H](CC(=O)O)N(C)C(=O)CCCCc2nc3c(cc2-c2ccccc2)CCCN3)cn1`, in data set [1], the Sigmap was 0.05. Further, the IC50 in data set [2] is 0.9 nM.
